Earlier results in article PMC9127185, “A Pyridazinone Compound for Effectively Treating Non-alcoholic Steatohepatitis by Targeting THRβ” (Frontiers in Chemistry, 2022).

Design: method as in Harrison et al., 2019
Conditions: ref Harrison et al., 2019; cited from earlier work

In the case of `CC(C)c1cc(Oc2c(Cl)cc(-n3nc(C#N)c(=O)[nH]c3=O)cc2Cl)n[nH]c1=O` [resmetirom, 2-[3,5-Dichloro-4-(5-Isopropyl-6-Oxo-1,6-Dihydropyridazin-3-Yloxy)phenyl]-3,5-Dioxo-2,3,4,5-Tetrahydro[1,2,4]triazine-6-Carbonitrile], the Distribution is listed as “liver-specific distribution” and the “Effect on low density lipoprotein and triglyceride” value is listed as “reduced both low density lipoprotein and triglyceride effectively”.
